From patent publication US12568972B2, “Pyridazinol compounds and derivatives, preparation methods, herbicidal compositions and applications thereof” (Qingdao Kingagroot Chemical Compound Co., Ltd., priority 2018, dated 2026)

Key:
Assay in all cases: Post-emergence test, weed control effect
Type in all cases: in vivo
Settings in all cases: after 3 weeks
Veronica polita = tested on: Veronica polita
Description: (§1) The activity level standard of harmful plant destruction (i.e. growth inhibition rate) is as follows: • Level 10: completely dead; • Level 9: above 90% growth inhibition rate; • Level 8: above 80% growth inhibition rate; • Level 7: above 70% growth inhibition rate; • Level 6: above 60% growth inhibition rate; • Level 5: above 50% growth inhibition rate; • Level 4: above 40% growth inhibition rate; • Level 3: above 30% growth inhibition rate; • Level 2: above 20% growth inhibition rate; • Level 1: below 20% growth inhibition rate; • Level 0: no effect.
(§2) The above described growth inhibition rates are fresh weight inhibition rates.
(§3) Experiment of post-emergence test: monocotyledonous and dicotyledonous weed seeds as well as main crop seeds (i.e., wheat, corn, rice, soybean, cotton, oilseed rape, millet and sorghum) were put into a plastic pot loaded with soil, then covered with 0.5-2 cm of soil, and the seeds were allowed to grow in good greenhouse environment. The test plants were treated at 2-3 leaf stage 2-3 weeks after sowing. The test compounds of the invention were dissolved in acetone respectively, then added with Tween-80 and diluted by a certain amount of water to give solutions with certain concentrations, and added with 80% vegetable oil methyl ester synergist at 1500 g/ha. The solution was sprayed to the plants with a sprayer. The plants were cultured for 3 weeks in the greenhouse.

Chenopodiaceae = tested on: Chenopodiaceae
Description: as §1, §2, §3

Amaranthus retroflexus = tested on: Amaranthus retroflexus
Description: as §1, §2, §3

Rorippa indica = tested on: Rorippa indica
Description: as §1, §2, §3

Oc1cc(C(F)(F)F)nnc1-c1cccc(F)c1 [Compound 736]
10: weed control effect (activity level), Veronica polita (Veronica polita; dose 1000 g/ha) | weed control effect (activity level), Chenopodiaceae (Chenopodiaceae; dose 1000 g/ha) | weed control effect (activity level), Amaranthus retroflexus (Amaranthus retroflexus; dose 1000 g/ha) | weed control effect (activity level), Rorippa indica (Rorippa indica; dose 1000 g/ha)

Oc1cc(C(F)(F)F)nnc1-c1ccc(C(F)(F)F)cc1Cl [Compound 769]
10: weed control effect (activity level), Veronica polita (Veronica polita; Dose 3000 g/ha) | weed control effect (activity level), Chenopodiaceae (Chenopodiaceae; Dose 3000 g/ha) | weed control effect (activity level), Amaranthus retroflexus (Amaranthus retroflexus; Dose 3000 g/ha) | weed control effect (activity level), Rorippa indica (Rorippa indica; Dose 3000 g/ha)

Oc1cc(C(F)(F)F)nnc1-c1ccncc1Cl [Compound 279]
10: weed control effect (activity level), Veronica polita (Veronica polita; dose 2000 g/ha) | weed control effect (activity level), Chenopodiaceae (Chenopodiaceae; dose 2000 g/ha) | weed control effect (activity level), Amaranthus retroflexus (Amaranthus retroflexus; dose 2000 g/ha) | weed control effect (activity level), Rorippa indica (Rorippa indica; dose 2000 g/ha)

Cc1[nH]nc(-c2nnc(C(F)(F)F)cc2O)c1C [Compound 544]
10: weed control effect (activity level), Veronica polita (Veronica polita; Dose 3000 g/ha) | weed control effect (activity level), Chenopodiaceae (Chenopodiaceae; Dose 3000 g/ha) | weed control effect (activity level), Amaranthus retroflexus (Amaranthus retroflexus; Dose 3000 g/ha) | weed control effect (activity level), Rorippa indica (Rorippa indica; Dose 3000 g/ha)

CSc1ccc(-c2nnc(C(F)(F)F)cc2OC(=O)SCCc2ccccc2)cc1 [Compound 1-103]
10: weed control effect, Veronica polita (activity level) (Veronica polita; Dose 3000 g/ha) | weed control effect, Chenopodiaceae (activity level) (Chenopodiaceae; Dose 3000 g/ha) | weed control effect, Amaranthus retroflexus (activity level) (Amaranthus retroflexus; Dose 3000 g/ha) | weed control effect, Rorippa indica (activity level) (Rorippa indica; Dose 3000 g/ha)

CCCn1cc(-c2nnc(C(F)(F)F)cc2O)cn1 [Compound 546]
10: weed control effect (activity level), Veronica polita (Veronica polita; Dose 3000 g/ha) | weed control effect (activity level), Chenopodiaceae (Chenopodiaceae; Dose 3000 g/ha) | weed control effect (activity level), Amaranthus retroflexus (Amaranthus retroflexus; Dose 3000 g/ha) | weed control effect (activity level), Rorippa indica (Rorippa indica; Dose 3000 g/ha)

O=C(Oc1cc(C(F)(F)F)nnc1-c1ccc(F)cc1)C(F)(F)C(F)(F)C(F)(F)F [Compound 1-25]
10: weed control effect, Veronica polita (activity level) (Veronica polita; Dose 3000 g/ha) | weed control effect, Chenopodiaceae (activity level) (Chenopodiaceae; Dose 3000 g/ha) | weed control effect, Amaranthus retroflexus (activity level) (Amaranthus retroflexus; Dose 3000 g/ha) | weed control effect, Rorippa indica (activity level) (Rorippa indica; Dose 3000 g/ha)

Cc1ccc(S(=O)(=O)Oc2cc(C(F)(F)F)nnc2-c2ccc(F)cc2)cc1 [Compound 1-132]
10: weed control effect, Veronica polita (activity level) (Veronica polita; Dose 3000 g/ha) | weed control effect, Chenopodiaceae (activity level) (Chenopodiaceae; Dose 3000 g/ha) | weed control effect, Amaranthus retroflexus (activity level) (Amaranthus retroflexus; Dose 3000 g/ha) | weed control effect, Rorippa indica (activity level) (Rorippa indica; Dose 3000 g/ha)

CC(=O)n1nccc1-c1nnc(C(F)(F)F)cc1O [Compound 834]
10: weed control effect (activity level), Veronica polita (Veronica polita; Dose 3000 g/ha) | weed control effect (activity level), Chenopodiaceae (Chenopodiaceae; Dose 3000 g/ha) | weed control effect (activity level), Amaranthus retroflexus (Amaranthus retroflexus; Dose 3000 g/ha) | weed control effect (activity level), Rorippa indica (Rorippa indica; Dose 3000 g/ha)

O=C(Oc1cc(C(F)(F)F)nnc1-c1ccccc1)C1CCCCC1 [Compound 1-19]
10: weed control effect, Veronica polita (activity level) (Veronica polita; Dose 3000 g/ha) | weed control effect, Chenopodiaceae (activity level) (Chenopodiaceae; Dose 3000 g/ha) | weed control effect, Amaranthus retroflexus (activity level) (Amaranthus retroflexus; Dose 3000 g/ha) | weed control effect, Rorippa indica (activity level) (Rorippa indica; Dose 3000 g/ha)

Fc1ccc(-c2nnc(C(F)(F)F)cc2OCc2ccccc2)cc1 [Compound 1-209]
10: weed control effect, Veronica polita (activity level) (Veronica polita; Dose 3000 g/ha) | weed control effect, Chenopodiaceae (activity level) (Chenopodiaceae; Dose 3000 g/ha) | weed control effect, Amaranthus retroflexus (activity level) (Amaranthus retroflexus; Dose 3000 g/ha) | weed control effect, Rorippa indica (activity level) (Rorippa indica; Dose 3000 g/ha)

O=C(CC1CCCC1)Oc1cc(C(F)(F)F)nnc1-c1ccc(C(F)(F)F)cc1 [Compound 1-18]
10: weed control effect, Veronica polita (activity level) (Veronica polita; Dose 3000 g/ha) | weed control effect, Chenopodiaceae (activity level) (Chenopodiaceae; Dose 3000 g/ha) | weed control effect, Amaranthus retroflexus (activity level) (Amaranthus retroflexus; Dose 3000 g/ha) | weed control effect, Rorippa indica (activity level) (Rorippa indica; Dose 3000 g/ha)

Oc1cc(C(F)(F)F)nnc1-c1cncc(F)c1 [Compound 963]
10: weed control effect (activity level), Veronica polita (Veronica polita; Dose 3000 g/ha) | weed control effect (activity level), Chenopodiaceae (Chenopodiaceae; Dose 3000 g/ha) | weed control effect (activity level), Amaranthus retroflexus (Amaranthus retroflexus; Dose 3000 g/ha) | weed control effect (activity level), Rorippa indica (Rorippa indica; Dose 3000 g/ha)

Fc1ccc(-c2nnc(C(F)(F)F)cc2OCc2ccccc2)cc1F [Compound 1-210]
10: weed control effect, Veronica polita (activity level) (Veronica polita; Dose 3000 g/ha) | weed control effect, Chenopodiaceae (activity level) (Chenopodiaceae; Dose 3000 g/ha) | weed control effect, Amaranthus retroflexus (activity level) (Amaranthus retroflexus; Dose 3000 g/ha) | weed control effect, Rorippa indica (activity level) (Rorippa indica; Dose 3000 g/ha)

Cn1cncc1-c1nnc(C(F)(F)F)cc1O [Compound 857]
10: weed control effect (activity level), Veronica polita (Veronica polita; Dose 3000 g/ha) | weed control effect (activity level), Chenopodiaceae (Chenopodiaceae; Dose 3000 g/ha) | weed control effect (activity level), Amaranthus retroflexus (Amaranthus retroflexus; Dose 3000 g/ha) | weed control effect (activity level), Rorippa indica (Rorippa indica; Dose 3000 g/ha)

Oc1cc(C(F)(F)F)nnc1-c1cc(Cl)ccc1Cl [Compound 37]
10: weed control effect (activity level), Veronica polita (Veronica polita; dose 1000 g/ha) | weed control effect (activity level), Chenopodiaceae (Chenopodiaceae; dose 1000 g/ha) | weed control effect (activity level), Amaranthus retroflexus (Amaranthus retroflexus; dose 1000 g/ha) | weed control effect (activity level), Rorippa indica (Rorippa indica; dose 1000 g/ha)

C#Cc1ccc(-c2nnc(C(F)(F)F)cc2O)nn1 [Compound 349]
10: weed control effect (activity level), Veronica polita (Veronica polita; dose 2000 g/ha) | weed control effect (activity level), Chenopodiaceae (Chenopodiaceae; dose 2000 g/ha) | weed control effect (activity level), Amaranthus retroflexus (Amaranthus retroflexus; dose 2000 g/ha) | weed control effect (activity level), Rorippa indica (Rorippa indica; dose 2000 g/ha)
